Where no end group is shown, it is not given here.
Assay: Blood-brain barrier permeability of fluorescent analogues
Format: in vivo, mice
Details: mouse, in vivo, iv
Method: VI.ii. Blood-brain Barrier Permeability. […] After injection of the compounds, the mice are perfused with paraformaldehyde and the brains are carefully removed, post-fixed in paraformaldehyde, processed into coronal sections, and quantified for fluorescence (Example 8).
The fluorescent ligands were injected intravenously (3 nmol/g) and the location of the ligands was detected by fluorescence microscopy of coronal brain slices (n=8) mice, was evaluated 2 hours after injection. Two sections of the brain, prior to and two after the anterior commissure (n=5), were selected for BBB permeability analysis. The anterior commissure (Bregma: −0.3) was used as a fix point in the brain in order to analyse anatomically identical brain sections. The intensity of the 5-FAM fluorophore was measured semi-quantitatively using a fluorescence microscopy system (Olympus System Microscope model BX-51, Denmark) with a 10× objective (Olympus 10×/0.15 UPlanApo) connected to a high-resolution microscope digital camera (Olympus model DP70), which transferred images to an image-capturing software (Image Pro Plus software). All images were taken using the same microscope settings and with constant camera exposure time. Intensities were quantified using the ImageJ software.
5-FAM-labeled derivative of Tat-NR2B9c is designated MS23. After injection of the compounds, the mice are perfused with paraformaldehyde and the brains are carefully removed, post-fixed in paraformaldehyde, processed into coronal sections, and quantified for fluorescence.
C57BL/6 mice with 6 hour post-surgical survival time were euthanized by cervical dislocation. C57BL/6 mice with 48 hour post-surgical survival were anesthetized with an overdosed of pentobarbital (the pharmacy of the Faculty of Life Sciences, University of Copenhagen, Denmark) in order to collect blood and tissue samples. All brains were carefully removed, frozen in gaseous CO2 and cut into 6 series of 30 μm coronal cryostat sections and stored at −80° C. until further use. C57BL/6J mice used to investigate the blood-brain barrier (BBB) permeability of AB143, AB145, AB148, and MS23 were deeply anesthetized and perfused through the left ventricle, using 10 ml chilled Soerensens phosphate buffer (SB) ([…], 125 mM Na2HPO4, pH 7.4) followed by 20 mL SB containing 4% paraformaldehyde (PFA). The brains were carefully removed and post-fixed in 4% PFA for 1 hour followed by immersion in SB containing 20% sucrose over night. The brains were frozen on gaseous CO2 and processed into 16 μm coronal cryostat sections.

## YGRKKRRQRRRKLSSIESDV [Tat-NR2B9c, reference compound]
  entry into brain, fluorescence microscopy of coronal brain slices: enter the brain
